Results as given in US12502379B2, “Ponesimod for avoiding worsening of fatigue-related symptoms in multiple sclerosis patients” (Vanda Pharmaceuticals Inc., priority 2019, dated 2025).

Assays:
Format in all cases: in vivo, human
[1] = system: Patients (18-55 years) with RMS; experiment: No evidence of disease activity (NEDA-3) status; settings: PON 20 mg vs TER 14 mg; week 108
Description: (§1) In this study, prespecified MRI-based endpoints and no evidence of disease activity (NEDA) status is evaluated.
(§2) Patients (18-55 years) with RMS (expanded disability status scale scores: 0-5.5) were randomized (1:1) to receive ponesimod (PON) 20 mg or teriflunomide (TER) 14 mg for 108 weeks. MRI assessments were: volume of T2 lesions; mean number of new gadolinium-enhancing (Gd+) T1 lesions and new/enlarging T2 lesions; and absence of active MRI lesions at week 108. NEDA-3 status (absence of confirmed relapse, Gd+T1 lesions and new/enlarging T2 lesions on annual MRIs, and 12-week confirmed disability accumulation) was evaluated from baseline to week 108.

[2] = system: adult subjects with relapsing MS; experiment: Time to first 12-week confirmed disability accumulation (CDA) on EDSS
Description: (§3) Secondary efficacy variables and testing strategy: Four secondary efficacy endpoints were analyzed as per the statistical testing strategy outlined in FIG. 1. • Change from baseline to Week 108 in fatigue-related symptoms as measured by the symptoms domain of the FSIQ-RMS patient-reported outcome [Fatigue] • Cumulative number of combined unique active lesions from baseline to Week 108 on brain MRI [CUALs] • Time to first 12-week confirmed disability accumulation (CDA) from baseline to EOS on Expanded Disability Status Scale (EDSS) [12-week CDA] • Time to first 24-week CDA from baseline to EOS on EDSS [24-week CDA]
A 12-week CDA is an increase of at least 1.5 in EDSS for subjects with a baseline EDSS score of 0.0 or an increase of at least 1.0 in EDSS for subjects with a baseline EDSS score of 1.0 to 5.0, or an increase of at least 0.5 in EDSS for subjects with a baseline EDSS score ≥5.5 which is to be confirmed after 12 weeks.
Baseline EDSS is defined as the last EDSS score recorded prior to randomization. The initial EDSS increase, meeting the above criteria, is defined as the onset of disability accumulation.
All EDSS measurements (with or without relapse, at a scheduled or unscheduled visit) were used to determine the onset of disability accumulation. […]

[3] = ALT increase relative to ULN; settings: ponesimod 20 mg arm, teriflunomide 14 mg arm
[4] = system: Patients (18-55 years) with RMS; experiment: Pre-specified MRI endpoints (Example 2); settings: PON 20 mg vs TER 14 mg; baseline to week 108
Description: as §1, §2

[5] = system: adult subjects with relapsing MS; experiment: FSIQ-RMS weekly symptoms score, change from baseline to Week 108
Source text: In some embodiments, the patient-reported outcome questionnaire is the Fatigue Symptoms and Impact Questionnaire—Relapsing Multiple Sclerosis (FSIQ-RMS) (available from Mapi Research Trust). The FSIQ-RMS is an MS specific 20-item PRO measure that comprises 2 domains: one measuring MS symptoms and one measuring MS-related impacts. See Hudgens S, et al., Development and Validation of the FSIQ-RMS: A New Patient-Reported Questionnaire to Assess Symptoms and Impacts of Fatigue in Relapsing Multiple Sclerosis. Value Health. 2019 April; 22 (4): 453-466. doi: 10.1016/j.jval.2018.11.007. Epub 2019 Feb. 21. PubMed PMID: 30975397. With 7 symptom items and 13 impact items (in 3 impacts subdomains: physical, cognitive and emotional, and coping), the FSIQ-RMS is a comprehensive, valid, and reliable measure of fatigue-related symptoms and impacts in RMS patients. FIG. 2B depicts a conceptual framework for the FSIQ-RMS.
In some embodiments, the patient-reported outcome questionnaire is the symptom domain of the FSIQ-RMS. The FSIQ-RMS symptom domain (FSIQ-RMS-S) consists of seven items assessing fatigue-related symptoms with a recall period of 24 hours measured on an 11-point numeric rating scale; the standardized symptom domain score ranges from 0 to 100 with a higher score indicating greater fatigue. This domain (i.e., section 1 of the questionnaire) is completed on 7 consecutive days.
The patient-reported outcome questionnaire used for the below Examples is the Fatigue Symptoms and Impact Questionnaire-Relapsing Multiple Sclerosis (FSIQ-RMS). The FSIQ-RMS is an MS specific 20-item PRO measure that comprises 2 domains: one measuring MS symptoms (7 items) and one measuring MS-related impacts (13 items). The 7 symptom items and 13 impact items (in 3 impacts subdomains: physical, cognitive and emotional, and coping) are presented below.
For the MS symptoms domain, the FSIQ-RMS asks about a patient's fatigue-related symptoms of relapsing MS over the past 24 hours while doing routine daily activities (e.g., housework, yard work, shopping, working, etc.) for Items 1-6 or while at rest (e.g., reading a book, watching TV, etc.) for Item 7. Patients are asked to select a response on a scale of Oto 10 that best describes their experience and are asked to not skip any questions, with no answers being right or wrong.
as §3
The FSIQ-RMS symptom domain (FSIQ-RMS-S) consists of seven items assessing fatigue-related symptoms with a recall period of 24 hours measured on an 11-point numeric rating scale; the standardized symptom domain score ranges from 0 to 100 with a higher score indicating greater fatigue. This domain (i.e., section 1 of the questionnaire) is completed on 7 consecutive days.
FSIQ-RMS was completed during the pre-randomization period, at Visits 6, 7, 10, and 12 (Weeks 12, 24, 60, 84), 14 (EOT), and at unscheduled visits due to relapses (R1, R2, etc.) or other unscheduled visits (U1, U2, etc.) as described below. If applicable, FSIQ-RMS was performed at the corresponding visits in the PTOP.
The completion of the FSIQ-RMS during the pre-randomization period was done as follows: At Visit 1 (Screening), subjects who appear eligible based on the assessments made during this visit (but prior to the results from the laboratory assessments are received) were provided with the electronic device containing the FSIQ-RMS. […]

[6] = patients with no prior DMT treatment within about two years, FSIQ-RMS weekly symptoms score
[7] = patients without Gd+T1 lesions at baseline, FSIQ-RMS weekly symptoms score

CCC/N=C1\S/C(=C\c2ccc(OC[C@H](O)CO)c(Cl)c2)C(=O)N1c1ccccc1C [Ponesimod, (R)-5-[3-chloro-4-(2,3-dihydroxy-propoxy)-benz[Z]ylidene]-2-([Z]-propylimino)-3-o-tolyl-thiazolidin-4-one]
NEDA-3, odds ratio (OR) [1]: 1.70
Time to first 12-week CDA, hazard ratio ([2]; ponesimod 20 mg vs teriflunomide 14 mg, stratified Cox regression): 0.83
Reduction of the risk of 12-week CDA compared to teriflunomide 14 mg ([2]; ponesimod 20 mg, not statistically significant): 17%
Proportion of subjects who experienced ALT increase >3×ULN [3]: 17.3%
Proportion of subjects who experienced ALT increase >8×ULN [3]: 0.7%
New Gd+T1 lesions per scan, rate ratio [RR] [4]: 0.42
New/enlarging T2 lesions per year, RR [4]: 0.44
Change from baseline to Week 108 in FSIQ-RMS weekly symptoms score (mean) ([5]; MMRM, Full Analysis Set, increase = worsening, ponesimod 20 mg, teriflunomide 14 mg): −0.01
Change From Baseline to Week 108: Stable or Improved ([5]; patients with baseline fatigue below the median, FSIQ-RMS weekly symptoms score): ~65%
Change From Baseline to Week 108: Stable (−6.3 < x < +6.3) [5, 6]: 44.0%
Change From Baseline to Week 108: Stable or Improved [5, 6]: about 75%
Change From Baseline to Week 108: Improved (<−6.3) [5, 7]: 30.0%
Change From Baseline to Week 108: Stable or Improved [5, 7]: about 68%
